The target in the assay is SARS-CoV-2 3CLpro (Severe acute respiratory syndrome coronavirus 2, UniProt P0DTD1). The assay can be described thus: biochemical. Format: biochemical. Conditions: for inhibition at 5 µM: 4 h; for mean (LOPAC screen with protease) / Replicate_1 (LOPAC screen with protease) / Replicate_2 (LOPAC screen with protease): primary screen at 5 µM. Also noted: Replicate_1 / Replicate_2 / mean / mean (LOPAC_screen_w_protease): unit not given here.

Where [1] appears, read: sheet LOPAC_screen_w_protease, primary screen with protease, 5 µM, mean of two replicates.
The mark [2] stands for this setting: sheet LOPAC_screen_w_protease, primary screen with protease, 5 µM, replicate 1.
[3] abbreviates: sheet LOPAC_screen_w_protease, primary screen with protease, 5 µM, replicate 2.
Where [4] appears, read: sheet LOPAC_screen_w_protease, primary screen of LOPAC1280 at 5 µM with protease, mean of the two replicates.
Where [5] appears, read: sheet LOPAC_screen_w_protease, primary screen of LOPAC1280 at 5 µM with protease, replicate 1.
Where [6] appears, read: sheet LOPAC_screen_w_protease, primary screen of LOPAC1280 at 5 µM with protease, replicate 2.
Where [7] appears, read: sheet LOPAC_screen_w_protease, primary screen with protease, mean of two replicates.
[8] abbreviates: sheet LOPAC_screen_w_protease, primary screen with protease, replicate 1.
The mark [9] stands for this setting: sheet LOPAC_screen_w_protease, primary screen with protease, replicate 2.
[10] abbreviates: sheet LOPAC_screen_w_protease, primary screen with protease, compound at 5 µM, mean of two replicates.
[11] abbreviates: sheet LOPAC_screen_w_protease, primary screen with protease, compound at 5 µM, replicate 1.
Where [12] appears, read: sheet LOPAC_screen_w_protease, primary screen with protease, compound at 5 µM, replicate 2.
Setting [13] is: sheet LOPAC_screen_w_protease, LOPAC1280 primary screen at 5 µM, with protease, replicate 1.
Where [14] appears, read: sheet LOPAC_screen_w_protease, LOPAC1280 primary screen at 5 µM, with protease, replicate 2.
Where [15] appears, read: LOPAC1280 primary screen with protease, 5 µM compound, mean of the two replicates.
[16] abbreviates: sheet LOPAC_screen_w_protease, mean of two replicates.
The mark [17] stands for this setting: sheet LOPAC_screen_w_protease, replicate 1.
[18] abbreviates: sheet LOPAC_screen_w_protease, replicate 2.
Setting [19] is: sheet LOPAC_screen_w_protease, LOPAC1280 primary screen with protease, 5 µM compound, mean of the two replicates, read-out: mean.
The mark [20] stands for this setting: sheet LOPAC_screen_w_protease, LOPAC1280 primary screen with protease, 5 µM compound, replicate 1, read-out: Replicate_1.
The mark [21] stands for this setting: sheet LOPAC_screen_w_protease, LOPAC1280 primary screen with protease, 5 µM compound, replicate 2, read-out: Replicate_2.

Where a name gives a salt, the structure may show the parent alone. Read-outs that look alike come from different tables or passages of the source.

Take `NNc1nncc2ccccc12` [Hydralazine hydrochloride]: the inhibition at 5 µM came out at 4.76% (read-out: Replicate_1), 1.31% (read-out: Replicate_2) and 3.03% (read-out: mean).

The compound `CC(C)=CCC/C(C)=C/CC/C(C)=C/CSc1ccccc1C(=O)O` [Farnesylthiosalicylic acid] came in with a mean under setting [1] of 0.3894. The Replicate_1 under setting [2] is on record as 1.928. The Replicate_2 under setting [3] is reported as -1.149.

For the compound `Cl.N[C@@H](Cc1cnc[nH]1)C(=O)O` [L-Histidine hydrochloride], the mean under setting [4] is 3.829. Under setting [5], the Replicate_1 is 4.566. In addition, the Replicate_2 under setting [6] came to 3.093.

`C[N+]1(C)CCc2cc3c(cc2[C@H]1[C@@H]1OC(=O)c2c1ccc1c2OCO1)OCO3.[Br-]` [(-)-Bicuculline methbromide, 1(S), 9(R)] registered a mean under setting [7] of 2.342. Further, the Replicate_1 under setting [8] is listed as 1.484. This compound also displayed a Replicate_2 under setting [9] of 3.2.

As to `C[C@@H](NC(=O)/C(C#N)=C/c1ccc(O)c(O)c1)c1ccccc1` [Tyrphostin AG 527], the mean under setting [10] was determined as 2.942. Under setting [11], this compound showed a Replicate_1 of 4.113. Further, the Replicate_2 under setting [12] came out at 1.771.

In turn, `COC(=O)c1c(-c2cc(OC)c(OC)c(OC)c2)c2ccc(OCc3ccccn3)cc2c(=O)n1-c1ccc(N)cc1.O=S(=O)(O)O` [T-1032] had a mean (sheet LOPAC_screen_w_protease, LOPAC1280 primary screen at 5 µM, with protease, mean of the two replicates) of 0.5404. Further, the Replicate_1 under setting [13] is recorded as 1.02. The same compound came in with a Replicate_2 under setting [14] of 0.06128.

Turning to `c1ccc2cc(-c3ncc[nH]3)ccc2c1` [Benazoline oxalate], the inhibition at 5 µM reads like this: (sheet LOPAC_screen_w_protease, primary screen of LOPAC1280 at 5 µM with protease, mean of the two replicates, read-out: mean) 3.39%; (sheet LOPAC_screen_w_protease, primary screen of LOPAC1280 at 5 µM with protease, replicate 1, read-out: Replicate_1) 1.95%; (sheet LOPAC_screen_w_protease, primary screen of LOPAC1280 at 5 µM with protease, replicate 2, read-out: Replicate_2) 4.83%.

As to `S=C=Nc1ccc2oc(C3=NCCN3)cc2c1` [BU99006], the Replicate_1 is given as 4.032, the Replicate_2 worked out at 1.831 and the mean stood at 2.931.

Take `O=[N+]([O-])c1cc2nc(O)c(O)nc2cc1[N+](=O)[O-]` [DNQX]: the Replicate_1 was found to be 2.956, the Replicate_2 is 2.135 and the mean was 2.546.

As to `C[N+]1(C)[C@@H]2C[C@@H](OC(=O)[C@H](CO)c3ccccc3)C[C@H]1[C@@H]1O[C@@H]12` [(-)-Scopolamine methyl bromide], the inhibition at 5 µM by setting is: (sheet LOPAC_screen_w_protease, LOPAC1280 primary screen at 5 µM, with protease, mean of two replicates, read-out: mean) -1.17%; (sheet LOPAC_screen_w_protease, LOPAC1280 primary screen at 5 µM, with protease, replicate 1, read-out: Replicate_1) 0.833%; (sheet LOPAC_screen_w_protease, LOPAC1280 primary screen at 5 µM, with protease, replicate 2, read-out: Replicate_2) -3.16%.

With `NNCc1cccc(O)c1` [3-Hydroxybenzylhydrazine dihydrochloride], the inhibition at 5 µM by setting is: (LOPAC1280 primary screen with protease, 5 µM compound, replicate 1, read-out: Replicate_1 (LOPAC_screen_w_protease)) 3.31%; (LOPAC1280 primary screen with protease, 5 µM compound, replicate 2, read-out: Replicate_2 (LOPAC_screen_w_protease)) 0.839%. Besides, the “mean (LOPAC_screen_w_protease)” value under setting [15] worked out at 2.074.

Under setting [1], `Cc1nc(N=Nc2ccc(S(=O)(=O)O)cc2S(=O)(=O)O)c(COP(=O)(O)O)c(C=O)c1O` [PPADS] came in with a mean of 0.05886. Under setting [2], the Replicate_1 is given as -0.6012. For the same compound, the Replicate_2 under setting [3] was 0.7189.

For the compound `N/C(=N\C(=O)c1nc(Cl)c(N)nc1N)NCc1ccc(Cl)c(Cl)c1` [3',4'-Dichlorobenzamil], under setting [4], the mean stood at 4.038. Under setting [5], the Replicate_1 worked out at 5.158. Under setting [6], this compound displayed a Replicate_2 of 2.918.

`Nc1ncnc2c1ncn2C1CCCO1` (centres unmarked) [SQ 22536]: the mean (sheet LOPAC_screen_w_protease, LOPAC1280 primary screen at 5 µM, with protease, mean of two replicates) is reported as -1.0181. Further, the Replicate_1 under setting [13] was found to be 0.976. In addition, the Replicate_2 under setting [14] is listed as -3.012.

With `c1ccc2c(c1)OCC(C1=NCCN1)O2` (centres unmarked) [Idazoxan hydrochloride], the inhibition at 5 µM runs as follows: (read-out: Replicate_1 (LOPAC_screen_w_protease)) 1.08%; (read-out: Replicate_2 (LOPAC_screen_w_protease)) 2.66%.

For the compound `N[C@@H](Cc1ccc(O)c(I)c1)C(=O)O` [3-Iodo-L-tyrosine], the “mean (LOPAC_screen_w_protease)” value under setting [15] turned out to be 1.849. Moreover, the “Replicate_1 (LOPAC_screen_w_protease)” value (LOPAC1280 primary screen with protease, 5 µM compound, replicate 1) is on record as 1.662. For the same compound, the “Replicate_2 (LOPAC_screen_w_protease)” value (LOPAC1280 primary screen with protease, 5 µM compound, replicate 2) is 2.037.

With `CC(C)NNC(=O)c1ccncc1.O=P(O)(O)O` [Iproniazid phosphate], the mean under setting [10] turned out to be 2.591. Besides, the Replicate_1 under setting [11] is recorded as 1.295. The compound further registered a Replicate_2 under setting [12] of 3.887.

Take `CN(C)C(=O)C(CCN1CCC(O)(c2ccc(Cl)cc2)CC1)(c1ccccc1)c1ccccc1` [Loperamide hydrochloride]: the inhibition at 5 µM runs as follows: (sheet LOPAC_screen_w_protease, primary screen with protease, mean of two replicates, read-out: mean) 2.22%; (sheet LOPAC_screen_w_protease, primary screen with protease, replicate 1, read-out: Replicate_1) 4.2%; (sheet LOPAC_screen_w_protease, primary screen with protease, replicate 2, read-out: Replicate_2) 0.237%.

For `CN(C)CCCCSC(=N)N.Cl.Cl` [SKF 91488 dihydrochloride], under setting [16], the “mean (LOPAC screen with protease)” value is 12.1431. Under setting [17], the “Replicate_1 (LOPAC screen with protease)” value was 13.4504. In addition, under setting [18], the “Replicate_2 (LOPAC screen with protease)” value is listed as 10.8358.

`Cc1cccc(/C=C/c2ccccc2)n1` [SIB 1893] yielded a mean under setting [1] of 0.4194. Under setting [2], the Replicate_1 was 2.242. Further, the Replicate_2 under setting [3] is listed as -1.403.

In turn, `C[N+]1(C)C2CCC1CC(OC(=O)c1c[nH]c3ccccc13)C2.[I-]` (centres unmarked) had a mean under setting [4] of 3.717. Under setting [5], the Replicate_1 came to 3.9921. Besides, under setting [6], the Replicate_2 turned out to be 3.441.

Regarding `N[C@@H](C(=O)N[C@@H]1C(=O)N2C(C(=O)O)=C(Cl)CS[C@H]12)c1ccccc1` [Cefaclor], the inhibition at 5 µM by setting is: (read-out: Replicate_1 (LOPAC screen with protease)) 13.9%; (read-out: Replicate_2 (LOPAC screen with protease)) 11.6%; (read-out: mean (LOPAC screen with protease)) 12.7%.

Turning to `Cl.N[C@@H](CCl)C(=O)O` [beta-Chloro-L-alanine hydrochloride], the mean under setting [7] came out at 2.368. Also, the Replicate_1 under setting [8] is 2.376. The Replicate_2 under setting [9] is 2.361.

Under setting [10], `COC(=O)C(C)(N)Cc1ccc(O)cc1.Cl` (racemic) had a mean of 2.971. Also, the Replicate_1 under setting [11] is 4.293. In addition, the Replicate_2 under setting [12] was 1.648.

Consider `CCCN(CCC)C(=O)C(CCC(=O)O)NC(=O)c1ccccc1` (centres unmarked) [Proglumide], for which the inhibition at 5 µM was 4.27% under setting [19], 4.11% under setting [20] and 4.43% under setting [21].

Consider `CCCCNc1c(C(=O)OCC)c(C)nc2c1cnn2CC` [Tracazolate], for which the inhibition at 5 µM is -0.116% (sheet LOPAC_screen_w_protease, primary screen with protease, 5 µM, mean of two replicates, read-out: mean); 0.109% (sheet LOPAC_screen_w_protease, primary screen with protease, 5 µM, replicate 1, read-out: Replicate_1); -0.341% (sheet LOPAC_screen_w_protease, primary screen with protease, 5 µM, replicate 2, read-out: Replicate_2).

For the compound `O=C1c2c(O)cc(O)cc2O[C@H](c2ccc(O)c(O)c2)[C@H]1O` (racemic) [(±)-Taxifolin], under setting [16], the “mean (LOPAC screen with protease)” value is 7.529. Further, the “Replicate_1 (LOPAC screen with protease)” value under setting [17] is given as 9.2588. For the same compound, the “Replicate_2 (LOPAC screen with protease)” value under setting [18] amounted to 5.799.

Take `NC(=O)CI` [Iodoacetamide]: under setting [16], the “mean (LOPAC screen with protease)” value worked out at 17.6073. Further, the “Replicate_1 (LOPAC screen with protease)” value under setting [17] worked out at 16.5057. For the same compound, the “Replicate_2 (LOPAC screen with protease)” value under setting [18] amounted to 18.7088.

As to `CN(C)[C@@H]1C(O)=C(C(N)=O)C(=O)[C@@]2(O)C(O)=C3C(=O)c4c(O)ccc(Cl)c4[C@@H](O)[C@H]3C[C@@H]12` [Demeclocycline hydrochloride], the inhibition at 5 µM by setting is: under setting [19], 4.52%; under setting [20], 7.2%; under setting [21], 1.84%.

Regarding `Cl.Cl.c1ccc(CCCN2CCN(CCOC(c3ccccc3)c3ccccc3)CC2)cc1` [GBR-12935 dihydrochloride], where the note is “sheet LOPAC_screen_w_protease, LOPAC1280 at 5 µM, mean of two replicates”, the mean is given as 0.9925. Besides, the Replicate_1 (sheet LOPAC_screen_w_protease, LOPAC1280 at 5 µM, replicate 1) was 2.277. Also, the Replicate_2 (sheet LOPAC_screen_w_protease, LOPAC1280 at 5 µM, replicate 2) is -0.2925.

The values are drawn from paper PMC7587356, “High-Throughput Screening for Inhibitors of the SARS-CoV-2 Protease Using a FRET-Biosensor” (Molecules, 2020).
